target: T1, human CRTH2 (Homo sapiens, UniProt Q9Y5Y4); assay: Human CRTH2 Receptor Binding Assay (whole cell, [3H]ramatroban); parameters: expressed in transfected cells; host or cells: CHO-K1; conditions: whole CHO-K1 cells stably expressing human CRTH2 and G-alpha16; 20 nM [3H]ramatroban; 1 hour, room temperature
T1 sequence (Q9Y5Y4 1-395): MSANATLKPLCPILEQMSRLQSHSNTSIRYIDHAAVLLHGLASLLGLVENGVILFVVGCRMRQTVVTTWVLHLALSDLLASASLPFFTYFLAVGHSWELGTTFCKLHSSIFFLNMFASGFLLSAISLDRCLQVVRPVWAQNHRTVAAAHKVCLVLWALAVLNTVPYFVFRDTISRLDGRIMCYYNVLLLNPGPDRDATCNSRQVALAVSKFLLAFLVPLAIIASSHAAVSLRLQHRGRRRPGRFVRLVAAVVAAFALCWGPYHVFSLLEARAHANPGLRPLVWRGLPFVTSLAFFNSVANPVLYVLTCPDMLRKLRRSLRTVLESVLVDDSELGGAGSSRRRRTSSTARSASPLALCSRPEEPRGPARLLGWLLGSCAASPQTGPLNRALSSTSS
Description: A whole cell receptor binding assay using [^3H]ramatroban as the competing radioactive ligand was employed to evaluate the compound binding activity to human CRTH2. The radioactive ligand [^3H]ramatroban was synthesized according to Sugimoto et. al. (Eur. J. Pharmacol. 524, 30-37, 2005) to a specific activity of 42 Ci/mmol.
A cell line stably expressing human CRTH2 was established by transfecting CHO-K1 cells with two mammalian expression vectors that harbored human CRTH2 and G-alpha16 cDNAs, respectively, using FuGene® 6 transfection reagent (from Roche). Stable clones expressing CRTH2 were selected by staining each clone with BM16 (BD Pharmingen™ from BD Biosciences, a division of Becton, Dickinson and Company), which is a rat monoclonal antibody to human CRTH2. The cells were maintained as monolayer cultures in Ham's F-12 medium containing 10% fetal bovine serum, 100 units/mL penicillin, 100 μg/mL streptomycin, 2 mM glutamine, 0.5 mg/mL G418 (geneticin) for CRTH2, and 0.2 mg/mL hygromycin-B (for G-alpha 16). For whole cell receptor binding assay, the monolayer cells were rinsed once with PBS (phosphate buffered saline), dissociated using ethylenediaminetetraacetate (Versene™ EDTA from Lonza Inc.), and suspended in PBS containing 10 mM MgCl2 and 0.06% BSA (bovine serum albumin) at 1.5×10^6 cells/mL.
The binding reactions (0.2 mL) were performed in 96-well plates at room temperature in PBS containing 1.5×10^5 cells, 10 mM MgCl2, 0.06% BSA, 20 nM [^3H]ramatroban, and test compound at various concentrations. After 1 hour of binding reactions, the cells were harvested on GF™/B filter microplates (microtiter plates with embedded glass fiber from PerkinElmer, Inc.) and washed 5 times with PBS using a Filtermate™ Harvester (a cell harvester that harvests and washes cells from microplates from PerkinElmer, Inc.). The radioactivities bound to the cells were determined using a microplate scintillation counter (TopCount® NXT, from PerkinElmer, Inc.) after adding 50 μL of Microscint™ 20 scintillation fluid (from PerkinElmer, Inc.) to each well of the filter plates. The radioactivity from non-specific binding was determined by replacing compound with 10 μM of 15(R)-15-methyl PGD2 (from Cayman Chemical Company) in the reaction mixtures. The radioactivity bound to the cells in the absence of compound (total binding) was determined by replacing compound with 0.25% of DMSO (dimethyl sulfoxide) in the reaction mixture. Specific binding data were obtained by subtracting the radioactivity of non-specific binding from each binding data.
The IC50 value is defined as the concentration of the tested compound that is required for 50% inhibition of total specific binding. In order to calculate the IC50 value, the percent inhibition data were determined for 7 concentrations for each compound. The percent inhibition for a compound at each concentration was calculated according to the following formula, [1-(specific binding in the presence of compound)/(total specific binding)]×100. The IC50 value was then obtained by fitting the percent inhibition data to a sigmoidal dose-response (4 parameter logistic) model in the XLfit® software Excel add-in program [from ID Business Solutions Ltd., model 205, where F(x)=(A+(B−A)/(1+((C/x)^D)))].

IC50 [nM]	SMILES
19.2	CCS(=O)(=O)N1CCN(C(=O)c2c(C)c(CC(=O)O)cc3ccc(F)cc23)CC1 [Example 1-1, [4-(4-Ethanesulfonyl-piperazine-1-carbonyl)-6-fluoro-3-methyl-naphthalen-2-yl]-acetic acid]
7.2	CCS(=O)(=O)N1CCN(C(=O)c2cc(CC(=O)O)cc3ccc(F)cc23)CC1 [Example 1-2, [4-(4-Ethanesulfonyl-piperazine-1-carbonyl)-6-fluoro-naphthalen-2-yl]-acetic acid]
21.2	Cc1c(CC(=O)O)cc2ccc(F)cc2c1C(=O)N1CCN(S(C)(=O)=O)CC1 [Example 1-3, [6-Fluoro-4-(4-methanesulfonyl-piperazine-1-carbonyl)-3-methyl-naphthalen-2-yl]-acetic acid]
15.5	Cc1c(CC(=O)O)cc2ccc(F)cc2c1C(=O)N1CCN(S(=O)(=O)C(C)C)CC1 [Example 1-4, {6-Fluoro-3-methyl-4-[4-(propane-2-sulfonyl)-piperazine-1-carbonyl]-naphthalen-2-yl}-acetic acid]
7.6	Cc1c(CC(=O)O)cc2ccc(F)cc2c1C(=O)N1CCN(S(=O)(=O)C(F)(F)F)CC1 [Example 1-5, [6-Fluoro-3-methyl-4-(4-trifluoromethanesulfonyl-piperazine-1-carbonyl)-naphthalen-2-yl]-acetic acid]
9.1	Cc1c(CC(=O)O)cc2ccc(F)cc2c1C(=O)N1CCN(S(=O)(=O)C2CC2)CC1 [Example 1-6, [4-(4-Cyclopropanesulfonyl-piperazine-1-carbonyl)-6-fluoro-3-methyl-naphthalen-2-yl]-acetic acid]
6.5	CCCS(=O)(=O)N1CCN(C(=O)c2cc(CC(=O)O)cc3ccc(F)cc23)CC1 [Example 1-7, {6-Fluoro-4-[4-(propane-1-sulfonyl)-piperazine-1-carbonyl]-naphthalen-2-yl}-acetic acid]
6.9	Cc1c(CC(=O)O)cc2ccc(F)cc2c1C(=O)N1CCN(S(=O)(=O)C2CCCC2)CC1 [Example 1-8, [4-(4-Cyclopentanesulfonyl-piperazine-1-carbonyl)-6-fluoro-3-methyl-naphthalen-2-yl]-acetic acid]
3.7	Cc1c(CC(=O)O)cc2ccc(F)cc2c1C(=O)N1CCN(S(=O)(=O)c2ccccc2)CC1 [Example 1-9, [4-(4-Benzenesulfonyl-piperazine-1-carbonyl)-6-fluoro-3-methyl-naphthalen-2-yl]-acetic acid]
207	Cc1c(CC(=O)O)cc2ccc(F)cc2c1C(=O)N1CC2(C1)CN(S(=O)(=O)c1ccccc1)C2 [Example 1-10, [4-(6-Benzenesulfonyl-2,6-diaza-spiro[3.3]heptane-2-carbonyl)-6-fluoro-3-methyl-naphthalen-2-yl]-acetic acid]
88.3	Cc1c(CC(=O)O)cc2ccc(F)cc2c1C(=O)N1CC2(C1)CN(S(=O)(=O)Cc1ccccc1)C2 [Example 1-11, [6-Fluoro-3-methyl-4-(6-phenylmethanesulfonyl-2,6-diaza-spiro[3.3]heptane-2-carbonyl)-naphthalen-2-yl]-acetic acid]
8.3	Cc1c(CC(=O)O)cc2ccc(F)cc2c1C(=O)N1CCN(S(=O)(=O)c2ccc(F)cc2)CC1 [Example 1-12, {6-Fluoro-4-[4-(4-fluoro-benzenesulfonyl)-piperazine-1-carbonyl]-3-methyl-naphthalen-2-yl}-acetic acid]
5.4	Cc1c(CC(=O)O)cc2ccc(F)cc2c1C(=O)N1CCN(S(=O)(=O)Cc2ccccc2)CC1 [Example 1-13, [6-Fluoro-3-methyl-4-(4-phenylmethanesulfonyl-piperazine-1-carbonyl)-naphthalen-2-yl]-acetic acid]
4.8	Cc1c(CC(=O)O)cc2ccc(F)cc2c1C(=O)N1CCN(S(=O)(=O)c2ccccc2F)CC1 [Example 1-14, {6-Fluoro-4-[4-(2-fluoro-benzenesulfonyl)-piperazine-1-carbonyl]-3-methyl-naphthalen-2-yl}-acetic acid]
2.6	Cc1c(CC(=O)O)cc2ccc(F)cc2c1C(=O)N1CCN(S(=O)(=O)c2ccc(F)c(F)c2)CC1 [Example 1-15, {4-[4-(3,4-Difluoro-benzenesulfonyl)-piperazine-1-carbonyl]-6-fluoro-3-methyl-naphthalen-2-yl}-acetic acid]
3.1	Cc1c(CC(=O)O)cc2ccc(F)cc2c1C(=O)N1CCN(S(=O)(=O)c2cccc(F)c2)CC1 [Example 1-16, {6-Fluoro-4-[4-(3-fluoro-benzenesulfonyl)-piperazine-1-carbonyl]-3-methyl-naphthalen-2-yl}-acetic acid]
3.7	Cc1c(CC(=O)O)cc2ccc(F)cc2c1C(=O)N1CCN(S(=O)(=O)c2ccc(F)cc2F)CC1 [Example 1-17, {4-[4-(2,4-Difluoro-benzenesulfonyl)-piperazine-1-carbonyl]-6-fluoro-3-methyl-naphthalen-2-yl}-acetic acid]
6	O=C(O)Cc1cc(C(=O)N2CCN(S(=O)(=O)c3ccccc3)CC2)c2cc(C(F)(F)F)ccc2c1 [Example 1-18, [4-(4-Benzenesulfonyl-piperazine-1-carbonyl)-6-trifluoromethyl-naphthalen-2-yl]-acetic acid]
1.7	O=C(O)Cc1cc(C(=O)N2CCN(S(=O)(=O)c3ccccc3)CC2)c2cc(OC(F)(F)F)ccc2c1 [Example 1-19, [4-(4-Benzenesulfonyl-piperazine-1-carbonyl)-6-trifluoromethoxy-naphthalen-2-yl]-acetic acid]
18.2	Cc1c(CC(=O)O)cc2ccc(F)cc2c1C(=O)N1CCN(c2ccc(F)cc2)CC1 [Example 2-1, {6-Fluoro-4-[4-(4-fluoro-phenyl)-piperazine-1-carbonyl]-3-methyl-naphthalen-2-yl}-acetic acid]
2.6	Cc1c(CC(=O)O)cc2ccc(F)cc2c1C(=O)N1CCN(c2ccccn2)CC1 [Example 2-2, [6-Fluoro-3-methyl-4-(4-pyridin-2-yl-piperazine-1-carbonyl)-naphthalen-2-yl]-acetic acid]
151	Cc1c(CC(=O)O)cc2ccc(F)cc2c1C(=O)N1CCN(c2ccccc2F)CC1 [Example 2-3, {6-Fluoro-4-[4-(2-fluoro-phenyl)-piperazine-1-carbonyl]-3-methyl-naphthalen-2-yl}-acetic acid]
59.1	Cc1c(CC(=O)O)cc2ccc(F)cc2c1C(=O)N1CCN(c2ccccc2)CC1 [Example 2-4, [6-Fluoro-3-methyl-4-(4-phenyl-piperazine-1-carbonyl)-naphthalen-2-yl]-acetic acid]
276	Cc1c(CC(=O)O)cc2ccc(F)cc2c1C(=O)N1CCN(c2ncccn2)CC1 [Example 2-5, [6-Fluoro-3-methyl-4-(4-pyrimidin-2-yl-piperazine-1-carbonyl)-naphthalen-2-yl]-acetic acid]
81.5	Cc1cccc(N2CCN(C(=O)c3c(C)c(CC(=O)O)cc4ccc(F)cc34)CC2)c1 [Example 2-6, [6-Fluoro-3-methyl-4-(4-m-tolyl-piperazine-1-carbonyl)-naphthalen-2-yl]-acetic acid]
57.1	Cc1c(CC(=O)O)cc2ccc(F)cc2c1C(=O)N1CCN(c2cccc(C(F)(F)F)c2)CC1 [Example 2-7, {6-Fluoro-3-methyl-4-[4-(3-trifluoromethyl-phenyl)-piperazine-1-carbonyl]-naphthalen-2-yl}-acetic acid]

Reference: patent US8188090B2, “Naphthylacetic acids” (Hoffman-La Roche Inc., priority 2008, dated 2012)
